Laboratory results: patent publication US20240408071A1, “NOVEL COMBINATION OF SEROTONIN RECEPTOR (5-HTR2B) ANTAGONIST AND AN IMMUNOMODULATOR AND CHEMOTHERAPEUTIC DRUGS FOR INHIBITION OF CANCER” (NATIONAL CENTRE FOR CELL SCIENCE, priority 2021, published 2024)

Tested on: OT-II CD4 T cells
Assay: OT-II peptide-specific proliferation of CFSE-tagged OT-II CD4 T cells in vitro
Format: cell-based, mouse
Details: BW-723C86 10 μM, OT-II peptide (Ova323-339), 5 days (FIG. 12A-B)
Experimental: FIG. 12 depicts that 5-HTR2B signalling affects the antigen-specific proliferation of CD4 T cells: (A-B) Total CD4 T cells were harvested from the lymph node of OT-II mice and they were tagged with CFSE and cultured in vitro in the presence or absence of OT-II peptide (Ova323-339), IL-2, 5-HTR2B agonist BW-723C86 (10 μM), Serotonin (20 μM) or 5-HTR2B antagonist RS-127445 (15 μM) for 5 days. After 5 days the proliferation of OT-II tetramer^+ CD4 T cells was measured and plotted as histogram overlay (A) or as statistical data (B). (C-D) Flow cytometric data and statistical analysis of the percentage of intra-tumoral OT-II-tetramer^+ IFNγ^+ CD4 T cell population from the control and RS-127445 treated MC38-ova tumor-bearing mice. (E-F) Flow cytometric data and statistical analysis of the percentage of intra-tumoral OT-II-tetramer^+ IFNγ^+ CD4 T cell population from the control and RS-127445 treated MC38-ova tumor-bearing mice. […]
A simple adoptive transfer experiment was performed to study the enhancement of CTL response in general or antigen-specific. […] The CFSE-tagged total lymph node cells from […] were cultured in the presence or absence of OT-II peptide (Ova323-339) 5-HTR2B agonist (BW-723C86), serotonin, and 5-HTR2B antagonist (RS-127445) as indicated in the figure for 5 days and the proliferation was measured (FIG. 12A-B). […]

CC(N)Cc1c[nH]c2ccc(OCc3cccs3)cc12 (stereo not shown) [BW-723C86]
OT-II peptide-specific proliferation of OT-II CD4 T cells: significantly reduced
